Broadly, the IC50 is the concentration needed to halve the response being measured.

In experiment [1] the test system is T47D (PI3Kα-H1047R) cell line. As to the kind of experiment: HTRF phospho-AKT(S473) cell assay in T47D cells. The experiment is classed as cell-based, human. In a few lines: (§1)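 T47D (PI3Kα-H1047R; RPMI, 10% FBS, insulin) and SKBR3 (wild-type PI3Kα; McCoy's 5A, 10% FBS) cells treated 2 h at 37 °C with 12-point 1:3 dilutions, top 5 μM and 10 μM respectively, ≤0.5% DMSO. SKBR3 stimulated with 70 ng/ml PDGF-BB for the last 15 min; lysate pAKT(S473) by HTRF, IC50 from curves.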
A general note: TR-FRET usually uses a lanthanide donor and a delayed reading to cut background.

The subject of experiment [2] is SKBR3 (PI3Kα-Wild Type) cell line. Description: HTRF phospho-AKT(S473) cell assay in SKBR3 cells. Format: cell-based, human. The method in brief:
as §1

Where [3] appears, read: Homo sapiens; HTRF phospho-AKT(S473), T47D (PI3Kα-H1047R) cells, 2 hours compound incubation.
Where [4] appears, read: Homo sapiens, SK-BR-3; HTRF phospho-AKT(S473), SKBR3 (PI3Kα-Wild Type) cells, 2 hours compound incubation, PDGF-BB stimulated.
[5] abbreviates: Homo sapiens; T47D (PI3Kα-H1047R) cells, HTRF phospho-AKT(S473), 2 hours compound incubation.
[6] abbreviates: Homo sapiens, SK-BR-3; SKBR3 (PI3Kα-Wild Type) cells, HTRF phospho-AKT(S473), 2 hours compound incubation, PDGF-BB stimulated.

Where only a bound is given, the exact number is not on record here.

With `Cc1cc([C@@H](C)Nc2ccc(Cl)nc2C(=O)NS(C)(=O)=O)c2nc(N3C[C@@H]4[C@H](C3)[C@H]4c3n[nH]cc3Cl)n(C)c(=O)c2c1` [Compound 593, 6-chloro-3-(((R)-1-(2-((1R,5S,6R)-6-(4-chloro-1H-pyrazol-3-yl)-3-azabicyclo[3.1.0]hexan-3-yl)-3,6-dimethyl-4-oxo-3,4-dihydroquinazolin-8-yl)ethyl)amino)-N-(methylsulfonyl) picolinamide], the IC50 in experiment [1] (setting [3]) was 0.25 to 0.5 µM; in experiment [2] (setting [4]), at least 5 µM.

As to `Cc1cc([C@@H](C)Nc2ccc(Cl)nc2C(=O)NS(C)(=O)=O)c2nc([C@@H]3CCCN(c4cc[nH]n4)C3)n(C)c(=O)c2c1` (relative stereo) [Compound 322, 3-(((R)-1-(2-((R*)-1-(1H-pyrazol-3-yl)piperidin-3-yl)-3,6-dimethyl-4-oxo-3,4-dihydroquinazolin-8-yl)ethyl)amino)-6-chloro-N-(methylsulfonyl) picolinamide], the IC50 in experiment [1] (setting [5]) is below 0.25 µM; in experiment [2] (setting [6]), 1 to 5 µM.

On to `Cc1cc([C@@H](C)Nc2ccc(Cl)nc2C(=O)NS(C)(=O)=O)c2nc(N3CC[C@H](Oc4cnc(C)nc4)C3)n(C)c(=O)c2c1` [Compound 512, 6-chloro-3-(((R)-1-(3,6-dimethyl-2-((S)-3-((2-methylpyrimidin-5-yl)oxy)pyrrolidin-1-yl)-4-oxo-3,4-dihydroquinazolin-8-yl)ethyl)amino)-N-(methylsulfonyl) picolinamide], for which the values for the IC50 in experiment [1] (setting [3]) and in experiment [2] (setting [4]) were 0.25 to 0.5 µM and 1 to 5 µM, respectively.

Consider `COc1cc(C2CCN(c3nc4c([C@@H](C)Nc5ccc(Cl)nc5C(=O)NS(C)(=O)=O)cc(C)cc4c(=O)n3C)CC2)n(C)n1` [Compound 325, (R)-6-chloro-3-((1-(2-(4-(3-methoxy-1-methyl-1H-pyrazol-5-yl)piperidin-1-yl)-3,6-dimethyl-4-oxo-3,4-dihydroquinazolin-8-yl)ethyl)amino)-N-(methylsulfonyl) picolinamide], for which the figures for the IC50 in experiment [1] (setting [5]) and in experiment [2] (setting [6]) were below 0.25 µM and 1 to 5 µM, respectively.

With `Cc1cc([C@@H](C)Nc2ccc(Cl)nc2C(=O)NS(C)(=O)=O)c2nc(-c3ccc(-c4cnn(C)c4)nc3)n(C)c(=O)c2c1` [Compound 241, (R)-6-chloro-3-((1-(3,6-dimethyl-2-(6-(1-methyl-1H-pyrazol-4-yl)pyridin-3-yl)-4-oxo-3,4-dihydroquinazolin-8-yl)ethyl)amino)-N-(methylsulfonyl) picolinamide], the values for the IC50 in experiment [1] (setting [5]) and in experiment [2] (setting [6]) were below 0.25 µM and 1 to 5 µM, respectively.

In the case of `Cc1cc([C@@H](C)Nc2ccc(Cl)nc2C(=O)NS(C)(=O)=O)c2nc(N3CCC4(CCN(c5ccn(C)n5)C4)C3)n(C)c(=O)c2c1` (stereo partly drawn) [Compound 371, 6-chloro-3-(((1R)-1-(3,6-dimethyl-2-(7-(1-methyl-1H-pyrazol-3-yl)-2,7-diazaspiro[4.4]nonan-2-yl)-4-oxo-3,4-dihydroquinazolin-8-yl)ethyl)amino)-N-(methylsulfonyl) picolinamide], the IC50 in experiment [1] (setting [5]) was below 0.25 µM; in experiment [2] (setting [6]), 1 to 5 µM.

Consider `[2H]C([2H])([2H])n1ccc([C@H]2[C@@H]3CN(c4nc5c([C@@H](C)Nc6ccc(Cl)nc6C(=O)NS(C)(=O)=O)cc(C)cc5c(=O)n4C)C[C@@H]32)n1` [Compound 493, 6-chloro-3-(((R)-1-(3,6-dimethyl-2-((1R,5S,6R)-6-(1-(methyl-d3)-1H-pyrazol-3-yl)-3-azabicyclo[3.1.0]hexan-3-yl)-4-oxo-3,4-dihydroquinazolin-8-yl)ethyl)amino)-N-(methylsulfonyl) picolinamide], for which the IC50 in experiment [1] (setting [3]) was below 0.25 µM; in experiment [2] (setting [4]) it was 1 to 5 µM.

For the compound `Cc1cc([C@@H](C)Nc2ccc(Cl)nc2C(=O)NS(C)(=O)=O)c2nc(N3CC[C@H](c4ccn(C)n4)CC3(C)C)n(C)c(=O)c2c1` (relative stereo) [Compound 323, 6-chloro-3-(((R)-1-(2-((R*)-2,2-dimethyl-4-(1-methyl-1H-pyrazol-3-yl)piperidin-1-yl)-3,6-dimethyl-4-oxo-3,4-dihydroquinazolin-8-yl)ethyl)amino)-N-(methylsulfonyl) picolinamide], the IC50 was 0.25 to 0.5 µM in experiment [1] (setting [5]) and at least 5 µM in experiment [2] (setting [6]).

For the compound `Cc1cc([C@@H](C)Nc2ccc(Cl)nc2C(=O)NS(C)(=O)=O)c2nc(N3C[C@@H]4[C@H](C3)[C@H]4c3ccn(C)n3)n(C3CC3)c(=O)c2c1` [Compound 419, 6-chloro-3-(((R)-1-(3-cyclopropyl-6-methyl-2-((1R,5S,6R)-6-(1-methyl-1H-pyrazol-3-yl)-3-azabicyclo[3.1.0]hexan-3-yl)-4-oxo-3,4-dihydroquinazolin-8-yl)ethyl)amino)-N-(methylsulfonyl) picolinamide], the IC50 lay in the range of 0.25 to 0.5 µM in experiment [1] (setting [5]) and 1 to 5 µM in experiment [2] (setting [6]).

On to `Cc1cc([C@@H](C)Nc2ccc(Cl)nc2C(=O)NS(C)(=O)=O)c2nc(N3C[C@H]4C[C@@H]3CN4c3ccccn3)n(C)c(=O)c2c1` [Compound 603, 6-chloro-3-(((R)-1-(3,6-dimethyl-4-oxo-2-((1R,4R)-5-(pyridin-2-yl)-2,5-diazabicyclo [2.2.1]heptan-2-yl)-3,4-dihydroquinazolin-8-yl)ethyl)amino)-N-(methylsulfonyl) picolinamide], for which the IC50 was 0.5 to 1 µM in experiment [1] (setting [3]) and at least 5 µM in experiment [2] (setting [4]).

In the case of `Cc1cc([C@@H](C)Nc2ccc(Cl)nc2C(=O)NS(C)(=O)=O)c2nc(N3CCC(c4ncc(Cl)cn4)CC3)n(C)c(=O)c2c1` [Compound 499, (R)-6-chloro-3-((1-(2-(4-(5-chloropyrimidin-2-yl)piperidin-1-yl)-3,6-dimethyl-4-oxo-3,4-dihydroquinazolin-8-yl)ethyl)amino)-N-(methylsulfonyl) picolinamide], the IC50 in experiment [1] (setting [3]) is 0.25 to 0.5 µM; in experiment [2] (setting [4]), at least 5 µM.

`Cc1cc([C@@H](C)Nc2ccc(Cl)nc2C(=O)NS(C)(=O)=O)c2nc(N3Cc4cnn(-c5ccc(C#N)cc5)c4C3)n(C)c(=O)c2c1` [Compound 240, (R)-6-chloro-3-((1-(2-(1-(4-cyanophenyl)-4,6-dihydropyrrolo[3,4-c]pyrazol-5(1H)-yl)-3,6-dimethyl-4-oxo-3,4-dihydroquinazolin-8-yl)ethyl)amino)-N-(methylsulfonyl) picolinamide]: the IC50 in experiment [1] (setting [5]) is below 0.25 µM; in experiment [2] (setting [6]) it was 1 to 5 µM.

Turning to `Cc1cc([C@@H](C)Nc2ccc(Cl)nc2C(=O)NS(C)(=O)=O)c2nc(N3CCC(c4cn(C(C)C)nn4)CC3)n(C)c(=O)c2c1` [Compound 573, (R)-6-chloro-3-((1-(2-(4-(1-isopropyl-1H-1,2,3-triazol-4-yl)piperidin-1-yl)-3,6-dimethyl-4-oxo-3,4-dihydroquinazolin-8-yl)ethyl)amino)-N-(methylsulfonyl) picolinamide], the values for the 50% inhibitory concentration (IC50) in experiment [1] (setting [3]) and in experiment [2] (setting [4]) were below 0.25 µM and 1 to 5 µM, respectively.

For `Cc1cc([C@@H](C)Nc2ccc(Cl)nc2C(=O)NS(C)(=O)=O)c2nc(N3Cc4cn(-c5ccc(C#N)cc5)nc4C3)n(C)c(=O)c2c1` [Compound 239, (R)-6-chloro-3-((1-(2-(2-(4-cyanophenyl)-2,6-dihydropyrrolo[3,4-c]pyrazol-5(4H)-yl)-3,6-dimethyl-4-oxo-3,4-dihydroquinazolin-8-yl)ethyl)amino)-N-(methylsulfonyl) picolinamide], the IC50 in experiment [1] (setting [5]) is below 0.25 µM; in experiment [2] (setting [6]) it was 1 to 5 µM.

On to `Cc1cc([C@@H](C)Nc2ccc(Cl)nc2C(=O)NS(C)(=O)=O)c2nc(N3CCC(c4ccn(C5COC5)n4)CC3)n(C)c(=O)c2c1` [Compound 447, (R)-6-chloro-3-((1-(3,6-dimethyl-2-(4-(1-(oxetan-3-yl)-1H-pyrazol-3-yl)piperidin-1-yl)-4-oxo-3,4-dihydroquinazolin-8-yl)ethyl)amino)-N-(methylsulfonyl) picolinamide], for which the IC50 in experiment [1] (setting [3]) is below 0.25 µM; in experiment [2] (setting [4]), 1 to 5 µM.

Consider `Cc1cc([C@@H](C)Nc2ccc(Cl)nc2C(=O)NS(C)(=O)=O)c2nc(N3Cc4ccc(C)nc4C3)n(C)c(=O)c2c1` [Compound 514, (R)-6-chloro-3-((1-(3,6-dimethyl-2-(2-methyl-5,7-dihydro-6H-pyrrolo[3,4-b]pyridin-6-yl)-4-oxo-3,4-dihydroquinazolin-8-yl)ethyl)amino)-N-(methylsulfonyl) picolinamide], for which the IC50 in experiment [1] (setting [3]) is below 0.25 µM; in experiment [2] (setting [4]), 1 to 5 µM.

As to `Cc1cc([C@@H](C)Nc2ccc(Cl)nc2C(=O)NS(C)(=O)=O)c2nc(-c3ccc(-c4ncc(C#N)cc4C)c(F)c3)n(C)c(=O)c2c1` [Compound 799, (R)-6-chloro-3-((1-(2-(4-(5-cyano-3-methylpyridin-2-yl)-3-fluorophenyl)-3,6-dimethyl-4-oxo-3,4-dihydroquinazolin-8-yl)ethyl)amino)-N-(methylsulfonyl) picolinamide], the results for the IC50 in experiment [1] (setting [3]) and in experiment [2] (setting [4]) were 0.25 to 0.5 µM and at least 5 µM, respectively.

On to `Cc1cc([C@@H](C)Nc2ccc(Cl)nc2C(=O)NS(C)(=O)=O)c2nc(N3C[C@@H]4CC4(c4cnc(C)nc4)C3)n(C)c(=O)c2c1` (relative stereo) [Compound 752, 6-chloro-3-(((R)-1-(3,6-dimethyl-2-((1R*,5R*)-1-(2-methylpyrimidin-5-yl)-3-azabicyclo[3.1.0]hexan-3-yl)-4-oxo-3,4-dihydroquinazolin-8-yl)ethyl)amino)-N-(methylsulfonyl) picolinamide], for which the IC50 in experiment [1] (setting [3]) is 0.5 to 1 µM; in experiment [2] (setting [4]), at least 5 µM.

Consider `Cc1cc([C@@H](C)Nc2ccc(Cl)nc2C(=O)NS(C)(=O)=O)c2nc(N3CCC4(CCC(O)CC4)CC3)n(C)c(=O)c2c1` [Compound 275, (R)-6-chloro-3-((1-(2-(9-hydroxy-3-azaspiro[5.5]undecan-3-yl)-3,6-dimethyl-4-oxo-3,4-dihydroquinazolin-8-yl)ethyl)amino)-N-(methylsulfonyl) picolinamide], for which the IC50 in experiment [1] (setting [5]) was below 0.25 µM; in experiment [2] (setting [6]) it was at least 5 µM.

(Values after patent US12281122B1, “PI3K inhibitors” (Cogent Biosciences, Inc., priority 2023, dated 2025).)
